Experiments:
[1] = system: human periodontal ligament fibroblasts (HPDLF); experiment: Periodontal ligament fibroblast attachment and proliferation on peptide scaffolds; type: cell-based; details: periodontal ligament fibroblasts cultured for three weeks
Protocol: (§1) 1% RADA16 solution was obtained as PuraMatrix (3DM Inc./BD Bioscience). VEVK9, VEVK12 and the functionalized peptides were obtained from CPC Scientific (San Jose, Calif.) and dissolved in water at final concentration of 1% […]. The functionalized peptide solutions were then mixed with 1% RADA16, VEVK9 or VEVK12 solution at a ratio of 1:1. Each peptide solution was then loaded in the cell culture plate insert (BD Bioscience, Bedford, Mass.). The medium described below was added to induce hydrogel formation.
(§2) Primary isolated human periodontal ligament fibroblasts were commercially obtained from Lonza Inc. (HPDLF, Walkersville, Md.) and routinely grown in the culture medium (SCGM, Walkersville, Md.) on regular cell culture flask. The cells were plated at 2×10^4 cells on the gel in the inserts. The culture medium was changed every three days. Additional growth factors were not used.
(§3) Following the experiments, the cells on the gel were fixed with 4% paraformaldehyde for 15 min and permeabilized with 0.1% Triton X-100 for 5 min at room temperature. Fluorescent Rhodamin phalloidin and SYTOX® Green (Molecular Probes, Eugene, Oreg.) were used for labeling F-actin and nuclei, respectively. Images were taken using a fluorescence microscope (Axiovert 25, ZEISS) or laser confocal scanning microscope (Olympus FV300).

[2] = Tapping mode AFM analysis of nanofiber formation; type: physicochemical; details: aqueous solutions
Text: VEVK9 and VEVK12 are simple repeating units of amino acids VEVK (Valine-Glutamate-Valine-Lysine) which self-assemble into a nanofiber structure. The self-assembling peptide VEVK9 was functionalized either with RGD, laminin cell adhesion motifs or an MMP cleavable motif in order to mimic extracellular matrix to enhance cell maintenance and function in cell cultures. The functionalized peptides vPRG, vYIG and vIKV were synthesized with the VEVK9 sequence plus an additional motif added to the C-terminus using solid phase synthesis. One motif contains two repetitions of the RGD sequence (PRGDSGYRGDS (SEQ ID NO: 15)), and the others are cell adhesion motifs of laminin (YIGSR (SEQ ID NO: 5), IKVAV (SEQ ID NO: 6)). Glycine residues were used between the self-assembling motif VEVKVEVKV (SEQ ID NO: 2) and the functional motif as a spaced linker to keep the flexibility of the functional peptides. The MMP-2 cleavable motif (PVGLIG (SEQ ID NO: 11)) was inserted between two VEVK units. In comparison to RADA16-I and its functionalized peptides, these peptides are short sequences, maximum 20 amino acids (in vPRG), and seem to be cost-effective. The peptides were solubilized in water at a concentration of 10 mg/ml (1%, w/v). The peptides readily undergo self-assembly to form soft hydrogels. Mixing with self-assembling peptide VEVK9 or VEVK12 facilitated self-assembly and gelation. […]

[3] = system: human periodontal ligament fibroblasts (HPDLF); experiment: Periodontal ligament fibroblast migration into peptide scaffolds (confocal microscopy); type: cell-based; details: for fibroblast adhesion, proliferation and 3-D migration into scaffold: reconstructed confocal images
Protocol: as §1, §2, §3
The functionalized peptide was obtained from CPC Scientific (San Jose, Calif.) and dissolved in water at final concentration of 1% […] as well. The functionalized peptide solutions were then mix with 1% VEVK9 or VEVK12 solution. The each peptide solution was loaded in the cell culture plate insert (BD Bioscience, Bedford, Mass.). The medium described below was added to induce hydrogel formation.

[4] = target: T1, MMP-2 (Homo sapiens, UniProt P08253); details: reference 19b; cited from earlier work
T1 sequence (P08253 110-660): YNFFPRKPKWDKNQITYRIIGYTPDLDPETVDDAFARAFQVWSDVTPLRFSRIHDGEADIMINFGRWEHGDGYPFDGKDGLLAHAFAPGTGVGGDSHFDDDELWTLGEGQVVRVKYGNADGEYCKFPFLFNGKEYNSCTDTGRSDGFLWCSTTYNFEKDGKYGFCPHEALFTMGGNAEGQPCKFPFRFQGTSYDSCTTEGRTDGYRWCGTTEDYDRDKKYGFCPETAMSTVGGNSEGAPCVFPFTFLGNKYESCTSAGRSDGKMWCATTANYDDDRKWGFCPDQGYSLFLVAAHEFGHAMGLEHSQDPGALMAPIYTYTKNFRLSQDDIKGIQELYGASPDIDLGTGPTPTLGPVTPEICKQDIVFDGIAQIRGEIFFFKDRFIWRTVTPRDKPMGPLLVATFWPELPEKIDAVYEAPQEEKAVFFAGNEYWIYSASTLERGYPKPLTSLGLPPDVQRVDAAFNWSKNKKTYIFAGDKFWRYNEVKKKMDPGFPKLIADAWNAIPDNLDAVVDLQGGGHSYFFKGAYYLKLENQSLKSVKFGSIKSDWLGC

[5] = system: Human gingival fibroblasts (HGF-1); experiment: Gingival fibroblast attachment and migration on peptide scaffolds (selective cell reproduction); type: cell-based; details: Example 2 comparison study, HGF-1 (FIG. 6)
Protocol: We tested the selective cell reproduction property of the functional scaffolds, using two periodontal cells, periodontal ligament fibroblasts and gingival fibroblasts.
Human gingival fibroblasts were commercially obtained from ATCC (HGF-1) and routinely grown in the culture medium (DMEM+10% FBS) on regular cell culture flask. The cells were plated at 2×10^4 cells on the gel in the inserts. The culture medium was changed every three days.

[6] = system: human periodontal ligament fibroblasts (HPDLF); experiment: Fluorescent immunostaining of type I and type III collagen production on peptide scaffolds; type: cell-based; details: six weeks cell culture, compared to RADA16 (FIG. 5)
Protocol: as §2
After the cell fixation, the primary antibody for type I collagen (5% Anti-collagen type I, Millpore, Mass.) was added and incubated at 37° for 40 min, then washing six times with PBS with 1% BSA. The second antibody (0.5% Alexa fluor 488 goat anti-rabbit IgG, Invitrogen) was added and incubated at 37° for another 40 min, then washing as well. After that, the primary antibody for type III collagen (0.5% Anti-collagen type III, Millpore, Mass.) was added and incubated at 37° for 40 min, then washing. Finally, the second antibody (0.5% Alexa fluor 594 goat ant-mouse IgG, Invitrogen) was added and incubated at 37° for another 40 min. Nonspecific staining as a control was performed by omitting primary antibodies.

Substance | cell attachment and morphology [1] | fibroblast adhesion, proliferation and 3-D migration into scaffold [3] | also measured
Ac-VEVKVEVKVEVK-CONH2 (Ac-VEVKVEVKVEVK-NH2) [VEVK12, 1% peptide F solution] | sparse and have a rounded morphology | – | formation of nanofibers [2]: formed nanofibers
Ac-VEVKVEVKVGPRGDSGYRGDSGCONH2 [vPRG] | good attachment and extension | significant increases in fibroblast proliferation and migration | –
Ac-VEVKVEVKV-CONH2 (Ac-VEVKVEVKV-NH2) [VEVK9, 1% peptide E solution] | sparse and have a rounded morphology | Only a few fibroblasts adhered | –
(RADA)3PVGLIG (RADA)3 (RADARADARADAPVGLIGRADARA) | – | – | degradability by MMP-2 [4]: degradable by MMP-2
Ac(RADA)4CONH2 (Ac-RADARADARADARADA-NH2) [RADA16, 1% peptide A solution; self assembling motif, obtained as PuraMatrix] | – | – | gingival fibroblast attachment and migration [5]: did not show migration in both fibroblasts; periodontal ligament fibroblast attachment and migration ([3]; Example 2 comparison study (FIG. 6)): did not show migration in both fibroblasts; type I and type III collagens production [6]: not to produce collagens
Ac-VEVKVEVKVGYIGSRCONH2 [vYIG] | good attachment and extension | migrate into them in the same manner | –
Ac-VEVKGPVGLIGVEVKCONH2 [vPVG] | – | significant increases in fibroblast proliferation and migration | –
Ac-VEVKVEVKVGIKVAVCONH2 [vIKV] | good attachment and extension | migrate into them in the same manner | –
